# Test results from patent publication US5985893A, “Physically stable solid form of a fluoroquinolone” (Pharmacia & Upjohn Company, priority 1996, dated 1999).
# Several values for one entry are separate records, joined by “and”; a condition that tells them apart may be missing. Identical values can stand only once. Entries after “also recorded” stand apart in the source; their conditions may differ.
# How the values were obtained:
# Assay type in all cases: physicochemical
# [1] = DSC and thermomicroscopy of solid-state transformations
# Description: A Nikon POH-2 polarized light compound microscope with 10× objective is employed to view specimens mounted dry between a glass microscope slide and a no. 11/2 Cover slip. The samples are heated from ambient through 250° C. in a Mettler FP-80 microfurnace controlled by a Mettler FP-8 microprocessor. The heating rates may vary from 5-20° C./minute. The hot-stage experiments may be videotaped (Sony T120-HG and PM VHS tape) with a Hitachi VK-C350 Color Video Camera and a Panasonic AG-6200 Video Cassette Recorder.
# Differential scanning calorimetry (DSC) is used to monitor enthalpy changes as a function of temperature during a linear temperature increase. A DuPont 910 DSC interfaced to a TA Instruments TA2100 computer may be used. The scan rate is 5° C./minute, and the instrument is operated with a 50-80 cc/min dry nitrogen purge. Samples are encapsulated in hermetically sealed aluminum sample pans with a pressure rating of about 2 bar. In some experiments, the lids of the pans are perforated to permit the passage of moisture and other volatile components.
# Because calorimetric samples are occasionally affected by residual moisture, samples are sometimes studied with different initial water activities. Samples are weighed into tared DSC pans, and the open pans are permitted to equilibrate for several days in chambers of constant relative humidity at 25±1° C. These chambers are prepared from saturated salt solutions at 53% RH and 75% RH. At the end of the equilibration period, the chambers are opened, and the lids are placed over the samples to prevent re-equilibration with the ambient atmosphere. The samples are removed from the chambers, and the pans are quickly crimped closed.
# Detailed description of FIG. 8. […] The heating rate is 5° C./minute. (a.) The sample is encapsulated in a standard DSC pan. (b.) The sample is encapsulated in a hermetically sealed DSC pan. The profiles are offset along the ordinate axis for comparison.
# Detailed description of FIG. 10. […] The heating rate was 5° C./minute. (a.) The sample was equilibrated at 53% RH and encapsulated in a standard DSC pan. (b.)The sample was equilibrated at 53% RH and encapsulated in a hermetically sealed DSC pan. (c.) The sample was equilibrated at 75% RH and encapsulated in a hermetically sealed DSC pan. The profiles were offset along the ordinate axis for comparison.
# [2] = Stability of the solid forms to phase transformation (overall finding); conditions: variety of conditions
# [3] = Enthalpies of solution (solution calorimetry); conditions: Form III grown directly from solution
# Description: The enthalpies of solution are determined in 50 mL of 0.1 M HCl at 25.0±0.05° C. Samples (0.10-0.11 g ) are weighed in 2 ml spherical, soft glass ampules and dried overnight in an evacuated desiccator over P2 O5. The ampules are removed, capped, weighed, and flame sealed. The enthalpies of solution are measured on a Tronac model 458 isoperibol solution calorimeter. The calorimetric accuracy of this instrument is within 1% based on calibration with tris(hydroxymethyl)-aminomethane (TRIS) in 0.1 N HCl.
# [4] = Isothermal calorimetry (ITC) of Form I to Form III conversion; conditions: after ITC at 40° C
# Description: Isothermal calorimetry (ITC) experiments are conducted using a model 2277 microcalorimeter made by ThermoMetric (see Suurkuusk, J.:Wadso, I. Chem. Scr. (1982) Vol. 20 pp. 155-163). The Digitam® version 2.1 software from Thermometric is used to display the data and to integrate the total heat obtained from the samples. Heat flow is monitored as a function of time at 60° C. and at 40° C. Both glass and stainless steel ampules are used to hold the solid samples and the reference material (quartz sand). Samples are thermally equilibrated for a period ranging from 15 minutes (glass ampules) to 1 hour (stainless steel ampules) prior to recording thermal data. The weight of the samples ranged from about 75 to 300 mg. Samples in glass ampules are equilibrated via the isopiestic method at 53% or 75% RH in chambers containing saturated solutions of sodium chloride or calcium nitrate tetrahydrate. The ampules are capped immediately after removing the samples. Other samples are equilibrated using "microhygrostats" containing small quantities of saturated salt solutions which are sealed within the ampules. This arrangement provided for nearly constant relative humidity as the crystal conversion proceeded.
# We therefore studied the transformation of samples after equilibration at […] and 75% RH. […] HPLC analysis of the reaction product confirmed that the 60° C. ITC profiles contained negligible contributions from chemical decomposition.
# A detailed explanation of FIG. 9 follows. […] Trace (a) is recorded from a sample of Form I equilibrated to 75% relative humidity before sealing the sample container and exposing it to the 60° C. conditions in the calorimeter. Trace (b) is recorded for a sample of Form I at 60° C., but a 75% relative humidity "microhygrostat" is placed in the sample container just prior to recording the data. The conversion is delayed from that of trace (a) due to the fact that the water must be transported from the microhygrostat to the Form I crystals during the experiment. Trace (c) is recorded for a sample of Form I at 60° C., but the sample was equilibrated at 53% relative humidity prior to sealing the sample container.
# This trace results from placing a 75% relative humidity microhygrostat into the sample container just prior to recording the data. The sample is held at 40° C. in the calorimeter; the heat flow results as the Form I material converts to Form III.
# [5] = Dynamic moisture sorption gravimetry (controlled atmosphere microbalance, 25° C)
# Description: Dynamic Moisture Sorption Gravimetry
# Dynamic moisture uptake is studied on the controlled atmosphere microbalance system at 25° C. About ten mg of sample are equilibrated on the balance for about 2 hours at 2.5% RH. The relative humidity surrounding the sample is increased in increments of 3% RH up to about 92% RH, at which point the RH is decremented in 3% steps to a final RH of about 2.5%. At each relative humidity, the sample is allowed to equilibrate until the mass is stable within 0.0005 mg over a ten minute period. The dry mass is assumed to correspond to the mass of the sample after the initial equilibration period. A controlled atmosphere microbalance is a balance system described by Bergren, M.S. Int. J. Pharm. (1994) Vol. 103, pp. 103-114.
# (§1) Detailed description of FIG. 2. […] The ordinate represents the mass change relative to the lowest mass measurement. The abscissa is relative humidity. The circles represent points recorded after sequential increases in the relative humidity and the squares were recorded after decreases in the relative humidity. The horizontal line in the middle of the plot corresponds to the water content of the hypothetical monohydrate of the quinolone.
# as §1, with “6.” for “2.”
# [6] = Solubility of the quinolone, Forms I and III, in ethyl acetate; conditions: 20° C, two values given
# Description: Bulk drug samples are prepared by dissolving the material in mobile phase at a final concentration of approximately 0.25 to 0.5 mg/ml. For solubility experiments, 100 mcl aliquots of ethyl acetate solutions are withdrawn and placed directly into HPLC autosampler vials. A gentle stream of nitrogen gas is used to evaporate the solvent in the sample vials. The solids are reconstituted with 0.5 ml of HPLC mobile phase prior to analysis.
# Solubilities are measured in ethyl acetate. Five to ten milligrams of bulk drug are placed into an amber autoinjector vial, and 3.0 ml of ethyl acetate are added. The vials are capped and shaken for intervals up to 24 hours at room temperature using a Burrell model BB wrist-action shaker. Aliquots are withdrawn from the supernate after centrifugation. The final sample is taken from a quiescent solution which had not been shaken since the 24 hour timepoint.
# The solubilities of Forms I and III were determined in ethyl acetate at room temperature; the solubility data for each form was gathered simultaneously, to assure that each form's solubility was measured under identical conditions. Ethyl acetate was employed as an aprotic solvent yielding fairly low equilibrium solubilities of the quinolone; ethyl acetate has been used to evaluate the difference in free energy of polymorphic forms of an antinociceptive drug, as described by K. Raghavan et al., J. Pharm. Biomed. Anal. Vol.12 (6), pp. 777-785 (1994). Under the assumption that the solubilities in TABLE S are consistent with the dilute solution limit, we can use the following expression to calculate the difference in Gibbs free energy between Form I and Form III: [formula] where "sx " is the solubility of Form x in a sufficiently dilute solution, R is the gas constant, and T is the absolute temperature. Using the data in Table 1, we find that the Gibbs free energy of Form III is lower than that of Form I by 7.7±0.2 kJ/mole.
SMILES,Temperature of Form II to Form III transformation ([1]; melt/recrystallization),Stability to transformation (in words) [2],Enthalpy of Form III lower than Form I by [3],Enthalpy of fusion ([1]; DSC),Moisture content of recovered Form III crystals [4] [%],"Moisture sorption behaviour (in words) ([5]; 25° C, sorption/desorption)",Moisture adsorbed ([5]; throughout the entire RH range),"Solubility, concentration ([6]; 1 hour, 60 min)","Solubility, concentration ([6]; 2 hours, 120 min) [µg/mL]","Solubility, concentration ([6]; 4.5 hours, 270 min) [µg/mL]","Solubility, concentration ([6]; 18 hours, 1080 min) [µg/mL]","Solubility, concentration ([6]; 24 hours, 1440 min) [µg/mL]","Solubility, concentration ([6]; 67.5 hours (not shaken after 24 hours), 4050 min) [µg/mL]",Stability to transformation (in words) ([2]; listed as methanolate)
"CN[C@@H](C)[C@@H]1CCN(c2c(F)cc3c(=O)c(C(=O)O)cn(C4CC4)c3c2OC)C1 [Form II, [S-(R*,S*)]-1-cyclopropyl-6-fluoro-1,4-dihydro-8-methoxy-7-[3-[1-(methylamino)ethyl]-1-pyrrolidinyl]-4-oxo-3-quinolinecarboxylic acid]",166-171 °C,undergo phase transformations under a variety of conditions,–,–,–,–,–,–,–,–,–,–,–,–
"CN[C@@H](C)[C@@H]1CCN(c2c(F)cc3c(=O)c(C(=O)O)cn(C4CC4)c3c2OC)C1 [Form III, [S-(R*,S*)]-1-cyclopropyl-6-fluoro-1,4-dihydro-8-methoxy-7-[3-[1-(methylamino)ethyl]-1-pyrrolidinyl]-4-oxo-3-quinolinecarboxylic acid]",–,stable to transformation,about 8.8 kJ/mole,approximately 150 J/g,0.61,"sorbs less moisture than Form I at all relative humidities; also recorded: very little hysteresis between the sorption and desorption profiles, and the sample exhibited no evidence of recrystallization and/or hydrate Formation",less than 0.5%,60 µg/mL and 90 µg/mL,110,120,140,150,140,–
"CN[C@@H](C)[C@@H]1CCN(c2c(F)cc3c(=O)c(C(=O)O)cn(C4CC4)c3c2OC)C1 [Form MS, [S-(R*,S*)]-1-cyclopropyl-6-fluoro-1,4-dihydro-8-methoxy-7-[3-[1-(methylamino)ethyl]-1-pyrrolidinyl]-4-oxo-3-quinolinecarboxylic acid]",–,undergo phase transformations under a variety of conditions,–,–,–,–,–,–,–,–,–,–,–,desolvates to yield Form I under such mild conditions that solvent is not normally retained in the product crystals
